# Experiments:
# [1] = target: T1, IDH1 (R132H) mutant (Homo sapiens, UniProt O75874, R132H); experiment: Fluorescence biochemical assay (NADPH oxidation); conditions: mIDH R132H 10 nM, 10 μM NADPH, 100 μM α-KG; range where run multiple times
# T1 construct: His6 with PreScission site (N, cleaved yes); made in house; host or cells: E. coli Rosetta 2(DE3)
# Description: The IDH1 (R132H) mutant catalyzes the reduced form of NADP+ (NADPH) and α-ketoglutarate (α-KG) to form nicotinamide adenine dinucleotide phosphate (NADP+) and R(−)-2-hydroxyglutarate (2HG). […] Reactions were monitored using the Perkin-Elmer Envision, Model 2101. […] The final reaction mixture contained 2.5% DMSO and test compounds with concentrations ranging 0.0000008-25 μM. The IDH1 (R132H) enzyme was used at a final concentration of 10 nM. Curve fitting for dose response […] determinations was done in the Helios module of the software package DAVID. The 4-parameter logistic model was used: y=min+((max−min)/1+(x/IC50)^shape)
# [2] = target: T2, Mutant IDH1 R132H (Homo sapiens, UniProt O75874, R132H); experiment: Mutant IDH1 biochemical assay: LC-MS detection of 2-HG; conditions: mIDH R132H […], 5 uM NADPH, 100 uM alpha-KG, 45 minutes incubation; range where run multiple times; further: mIDH R132H 0.25 nM, 5 µM NADPH
# T2 construct: His6 with PreScission site (N, cleaved yes); made in house; host or cells: E. coli Rosetta 2(DE3)
# T2 sequence (O75874 whole entry R132H): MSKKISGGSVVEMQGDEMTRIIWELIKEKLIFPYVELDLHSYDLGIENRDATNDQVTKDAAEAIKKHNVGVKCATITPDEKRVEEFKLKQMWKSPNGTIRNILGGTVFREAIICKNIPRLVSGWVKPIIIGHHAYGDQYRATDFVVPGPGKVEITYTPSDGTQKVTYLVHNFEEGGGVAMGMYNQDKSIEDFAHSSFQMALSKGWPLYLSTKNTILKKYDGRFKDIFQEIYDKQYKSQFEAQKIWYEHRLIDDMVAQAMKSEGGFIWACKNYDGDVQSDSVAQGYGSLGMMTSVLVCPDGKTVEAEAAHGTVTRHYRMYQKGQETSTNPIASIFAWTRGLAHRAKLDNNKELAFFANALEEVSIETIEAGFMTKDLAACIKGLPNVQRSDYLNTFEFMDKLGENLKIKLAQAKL
# Excerpt: Mutant IDH1 biochemical Sssay: LC-MS Detection of 2-HG.
# T1 sequence (O75874 whole entry R132H): as above
SMILES,IC50 [1],IC50 [2]
"Cc1cc(N2C(=O)OC[C@@H]2C2CC2)nc(N[C@@H](C)c2cn(-c3ccc(Cl)cc3)nn2)n1 [Example 11, (S)-3-(2-(((S)-1-(1-(4-chlorophenyl)-1H-1,2,3-triazol-4-yl)ethyl)amino)-6-methylpyrimidin-4-yl)-4-cyclopropyloxazolidin-2-one]",35.9 nM,76.7 nM
"C[C@H](Nc1nccc(N2C(=O)OC[C@]2(C)C2CC2)n1)c1ccc(CN2CCC(N(C)C)CC2)c(F)c1 [Example 30, (S)-4-cyclopropyl-3-(2-(((S)-1-(4-((4-(dimethylamino)piperidin-1-yl)methyl)-3-fluorophenyl)ethyl)amino)pyrimidin-4-yl)-4-methyloxazolidin-2-one]",122 to 172 nM,211 to 271 nM
"CC(Nc1nccc(N2C(=O)OC[C@]2(C)C2CC2)n1)c1nc(-c2ccc(Cl)c(OC(F)(F)F)c2)no1 (single isomer, unassigned) [Example 63]",1890 to 2120 nM,2260 nM
"Cc1cc(N2C(=O)OC[C@@H]2C2CC2)nc(N[C@@H](C)c2cc(-c3ccc(Cl)cc3)on2)n1 [Example 10, (S)-3-(2-(((S)-1-(5-(4-chlorophenyl)isoxazol-3-yl)ethyl)amino)-6-methylpyrimidin-4-yl)-4-cyclopropyloxazolidin-2-one]",71.6 nM,22.8 nM
"C[C@H](Nc1ncc(F)c(N2C(=O)OCC2(C)C2CC2)n1)c1ccc(CN2CCC(N(C)C)CC2)cc1F (single isomer, unassigned) [Example 57]",290 nM,868 nM
"C[C@H](Nc1nc(Cl)cc(N2C(=O)OC[C@@H]2C2CC2)n1)c1ccc(C(C)(C)F)cc1F [Example 20, (S)-3-(6-chloro-2-(((S)-1-(2-fluoro-4-(2-fluoropropan-2-yl)phenyl)ethyl)amino)pyrimidin-4-yl)-4-cyclopropyloxazolidin-2-one]",218 nM,83.9 nM
"Cc1cc(N2C(=O)OC[C@@H]2C2CC2)nc(N[C@@H](C)c2cnc(-c3ccc(Cl)cc3)s2)n1 [Example 9, (S)-3-(2-(((S)-1-(2-(4-chlorophenyl)thiazol-5-yl)ethyl)amino)-6-methylpyrimidin-4-yl)-4-cyclopropyloxazolidin-2-one]",105 nM,43.7 nM
"Cc1cc(N2C(=O)OC[C@@H]2C2CC2)nc(N[C@@H](C)c2cn(-c3ccc(Cl)cc3)cn2)n1 [Example 7, (S)-3-(2-(((S)-1-(1-(4-chlorophenyl)-1H-imidazol-4-yl)ethyl)amino)-6-methylpyrimidin-4-yl)-4-cyclopropyloxazolidin-2-one]",17.4 nM,8.45 nM
"C[C@H](Nc1nccc(N2C(=O)OC[C@]2(C)C2CC2)n1)c1ccc(CN2CCC(O)(C(F)(F)F)CC2)cc1F [Example 35, (S)-4-cyclopropyl-3-(2-(((S)-1-(2-fluoro-4-((4-hydroxy-4-(trifluoromethyl)piperidin-1-yl)methyl)phenyl)ethyl)amino)pyrimidin-4-yl)-4-methyloxazolidin-2-one]",15.9 nM,10.9 nM
"C[C@H](Nc1nc(Cl)cc(N2C(=O)OC[C@@H]2C2CC2)n1)c1cc(F)c(-c2cnn(C)c2)cc1F [Example 18, (S)-3-(6-chloro-2-(((S)-1-(2,5-difluoro-4-(1-methyl-1H-pyrazol-4-yl)phenyl)ethyl)amino)pyrimidin-4-yl)-4-cyclopropyl oxazolidin-2-one]",23.8 nM,15.8 nM
"CC(Nc1nccc(N2C(=O)OC[C@]2(C)C2CC2)n1)c1nc(-c2ccc(Cl)cc2)no1 (single isomer, unassigned) [Example 50]",62.9 nM,20.2 to 26 nM
"C[C@H](Nc1ncc(F)c(N2C(=O)OCC2(C)C2CC2)n1)c1ccc(CN2CCC(C)(N)CC2)c(F)c1 (single isomer, unassigned) [Example 60]",584 nM,1520 nM
"C[C@H](Nc1nccc(N2C(=O)OC[C@]2(C)C2CC2)n1)c1ccc(CN2CCC(C)(N(C)C)CC2)c(F)c1 [Example 37, (S)-4-cyclopropyl-3-(2-(((S)-1-(4-((4-(dimethylamino)-4-methylpiperidin-1-yl)methyl)-3-fluorophenyl)ethyl)amino)pyrimidin-4-yl)-4-methyloxazolidin-2-one]",,28.6 nM
"CC(Nc1nccc(N2C(=O)OC[C@@]2(C)C2CC2)n1)c1nc(-c2ccc(Cl)cc2)no1 (single isomer, unassigned) [Example 52]",,32.6 to 54 nM
"C[C@H](Nc1ncc(F)c(N2C(=O)OCC2(C)C2CC2)n1)c1ccc(CN2CCC(C)(N)CC2)cc1F (single isomer, unassigned) [Example 62]",748 nM,1620 nM
"CC(Nc1nccc(N2C(=O)OC[C@@]2(C)C2CC2)n1)c1nc(-c2ccc(Cl)c(OC(F)(F)F)c2)no1 (single isomer, unassigned) [Example 66]",34.3 to 72.5 nM,85 nM

SMILES,IC50 [1],IC50 [2]
"C[C@H](Nc1nccc(N2C(=O)OCC2(C)C2CC2)n1)c1ccc(CN2CCN(C)C(C)(C)C2)cc1 (single isomer, unassigned) [Example 55]",,77.9 nM
"Cc1cc(-c2cnc(C(C)Nc3nccc(N4C(=O)OC[C@]4(C)C4CC4)n3)nc2)ccc1F (single isomer, unassigned) [Example 53]",36.2 nM,22.7 to 35.4 nM
"C[C@H](Nc1nccc(N2C(=O)OC[C@]2(C)C2CC2)n1)c1ccc(CN2CCC(C)(O)CC2)cc1F [Example 34, (S)-4-cyclopropyl-3-(2-(((S)-1-(2-fluoro-4-((4-hydroxy-4-methylpiperidin-1-yl)methyl)phenyl)ethyl)amino)pyrimidin-4-yl)-4-methyloxazolidin-2-one]",41.8 to 53.1 nM,192 nM
"C[C@H](Nc1ncc(F)c(N2C(=O)OCC2(C)C2CC2)n1)c1ccc(CN2CCC(N(C)C)CC2)cc1F (single isomer, unassigned) [Example 58]",971 nM,2720 nM
"C[C@H](Nc1ncc(F)c(N2C(=O)OCC2(C)C2CC2)n1)c1ccc(CN2CCC(C)(N)CC2)c(F)c1 (single isomer, unassigned) [Example 59]",183 nM,922 nM
"C[C@H](Nc1nccc(N2C(=O)OC[C@]2(C)C2CC2)n1)c1ccc(CN2CCC(N)CC2)c(F)c1 [Example 41, (S)-3-(2-(((S)-1-(4-((4-aminopiperidin-1-yl)methyl)-3-fluorophenyl)ethyl)amino)pyrimidin-4-yl)-4-cyclopropyl-4-methyloxazolidin-2-one]",194 to 473 nM,376 nM
"CC(Nc1nccc(N2C(=O)OC[C@]2(C)C2CC2)n1)c1nc(-c2ccc(Cl)c(OC(F)(F)F)c2)no1 (single isomer, unassigned) [Example 64]",10.3 to 42.4 nM,25.2 nM
"CC(Nc1nccc(N2C(=O)OC[C@@]2(C)C2CC2)n1)c1nc(-c2ccc(Cl)cc2)no1 (single isomer, unassigned) [Example 51]",,3160 to 3260 nM
"C[C@H](Nc1nccc(N2C(=O)OC[C@]2(C)C2CC2)n1)c1ccc(CN2CCC(N(C)C)CC2)cc1F [Example 33, (S)-4-cyclopropyl-3-(2-(((S)-1-(4-((4-(dimethylamino)piperidin-1-yl)methyl)-2-fluorophenyl)ethyl)amino)pyrimidin-4-yl)-4-methyloxazolidin-2-one]",109 to 115 nM,175 nM
"C[C@H](Nc1ncc(F)c(N2C(=O)OCC2(C)C2CC2)n1)c1ccc(CN2CCC(C)(N)CC2)cc1F (single isomer, unassigned) [Example 61]",236 nM,696 nM
"C[C@H](Nc1nccc(N2C(=O)OC[C@]2(C)C2CC2)n1)c1ccc(CN2CCC(O)(C(F)(F)F)CC2)c(F)c1 [Example 32, (S)-4-cyclopropyl-3-(2-(((S)-1-(3-fluoro-4-((4-hydroxy-4-(trifluoromethyl)piperidin-1-yl)methyl)phenyl)ethyl)amino)pyrimidin-4-yl)-4-methyloxazolidin-2-one]",,13.3 nM
"Cc1cc(-c2cnc(C(C)Nc3nccc(N4C(=O)OC[C@]4(C)C4CC4)n3)nc2)ccc1F (single isomer, unassigned) [Example 54]",,> 5000 nM
"C[C@H](Nc1nccc(N2C(=O)OC[C@]2(C)C2CC2)n1)c1ccc(CN2CCC(C)(O)CC2)c(F)c1 [Example 31, (S)-4-cyclopropyl-3-(2-(((S)-1-(3-fluoro-4-((4-hydroxy-4-methylpiperidin-1-yl)methyl)phenyl)ethyl)amino)pyrimidin-4-yl)-4-methyloxazolidin-2-one]",,267 nM
"C[C@H](Nc1nccc(N2C(=O)OC[C@]2(C)C2CC2)n1)c1ccc(CN2CCC(N)(CO)CC2)c(F)c1 [Example 42, (S)-3-(2-(((S)-1-(4-((4-amino-4-(hydroxymethyl)piperidin-1-yl)methyl)-3-fluorophenyl)ethyl)amino)pyrimidin-4-yl)-4-cyclopropyl-4-methyloxazolidin-2-one]",,217 nM
"C[C@H](Nc1ncc(F)c(N2C(=O)OCC2(C)C2CC2)n1)c1ccc(CN2CCC(N(C)C)CC2)c(F)c1 (stereo partly drawn) [Example 36, 4-cyclopropyl-3-(2-(((S)-1-(4-((4-(dimethylamino)piperidin-1-yl)methyl)-3-fluorophenyl)ethyl)amino)-5-fluoropyrimidin-4-yl)-4-methyloxazolidin-2-one]",,963 nM
"CC(Nc1nccc(N2C(=O)OC[C@]2(C)C2CC2)n1)c1nc(-c2ccc(Cl)cc2)no1 (single isomer, unassigned) [Example 49]",,2520 nM

# — US20160039802A1, “3-PYRIMIDIN-4-YL-OXAZOLIDIN-2-ONES AS INHIBITORS OF MUTANT IDH” (NOVARTIS AG, priority 2013, published 2016)
